{"source": "PubChem BioAssay AID2060614", "about": "(Molecular Pharmacology Branch, DTP, NCI, 2025);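 further: spheroids exposed to compounds for seven days before readout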;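 on viability, T/C: 100% = DMSO vehicle control wells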", "system": "598228-144-R-J1-PDC complex spheroids, viability", "assay": "Anticancer human tumor 598228-144-R-J1-PDC patient-derived serous endometrial adenocarcinoma cell line growth inhibition [CLK]", "conditions": "for IC50: curve of first compound; for viability, T/C: stronger effect = lower value", "procedure,_shortened": "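Patient-derived tumor cells grown as complex spheroids with HUVEC endothelial cells and mesenchymal stem cells, treated with drug combinations. Concentrations descend in half-log steps from near clinical Cmax, or from 10 microM if Cmax unknown.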", "key": {"[1]": {"conditions": "second compound 0.0316 µM, first compound 0.0316 µM"}, "[2]": {"conditions": "second compound 0.0316 µM, first compound 0.1 µM"}, "[3]": {"conditions": "second compound 0.0316 µM, first compound 0.316 µM"}, "[4]": {"conditions": "second compound 0.0316 µM, first compound 1 µM"}, "[5]": {"conditions": "second compound 0.0316 µM, first compound 3.16 µM"}, "[6]": {"conditions": "second compound 0.0316 µM, first compound 10 µM"}, "[7]": {"conditions": "second compound 0.1 µM, first compound 0.0316 µM"}, "[8]": {"conditions": "second compound 0.1 µM, first compound 0.1 µM"}, "[9]": {"conditions": "second compound 0.1 µM, first compound 0.316 µM"}, "[10]": {"conditions": "second compound 0.1 µM, first compound 1 µM"}, "[11]": {"conditions": "second compound 0.1 µM, first compound 3.16 µM"}, "[12]": {"conditions": "second compound 0.1 µM, first compound 10 µM"}, "[13]": {"conditions": "second compound 0.316 µM, first compound 0.0316 µM"}, "[14]": {"conditions": "second compound 0.316 µM, first compound 0.1 µM"}, "[15]": {"conditions": "second compound 0.316 µM, first compound 0.316 µM"}, "[16]": {"conditions": "second compound 0.316 µM, first compound 1 µM"}, "[17]": {"conditions": "second compound 0.316 µM, first compound 3.16 µM"}, "[18]": {"conditions": "second compound 0.316 µM, first compound 10 µM"}, "[19]": {"conditions": "second compound 1 µM, first compound 0.0316 µM"}, "[20]": {"conditions": "second compound 1 µM, first compound 0.1 µM"}, "[21]": {"conditions": "second compound 1 µM, first compound 0.316 µM"}, "[22]": {"conditions": "second compound 1 µM, first compound 1 µM"}, "[23]": {"conditions": "second compound 1 µM, first compound 3.16 µM"}, "[24]": {"conditions": "second compound 1 µM, first compound 10 µM"}, "[25]": {"conditions": "second compound 3.16 µM, first compound 0.0316 µM"}, "[26]": {"conditions": "second compound 3.16 µM, first compound 0.1 µM"}, "[27]": {"conditions": "second compound 3.16 µM, first compound 0.316 µM"}, "[28]": {"conditions": "second compound 3.16 µM, first compound 1 µM"}, "[29]": {"conditions": "second compound 3.16 µM, first compound 3.16 µM"}, "[30]": {"conditions": "second compound 3.16 µM, first compound 10 µM"}, "[31]": {"conditions": "second compound 10 µM, first compound 0.0316 µM"}, "[32]": {"conditions": "second compound 10 µM, first compound 0.1 µM"}, "[33]": {"conditions": "second compound 10 µM, first compound 0.316 µM"}, "[34]": {"conditions": "second compound 10 µM, first compound 1 µM"}, "[35]": {"conditions": "second compound 10 µM, first compound 3.16 µM"}, "[36]": {"conditions": "second compound 10 µM, first compound 10 µM"}}}
{"smiles": "COc1ccc([C@@H](O)c2cc(-c3ncnc4cc(N5CCOCC5)ccc34)c(F)cc2Cl)nn1", "note": "+ CNC(=O)c1ccc(Nc2nc(OC3CCCC3)c3c(-c4ccc5nc(C)oc5c4)c[nH]c3n2)c(OC)c1", "values": [{"measurement": "IC50", "setting": "second compound 0.0316 µM", "result": 6.49, "unit": "µM"}, {"measurement": "IC50", "setting": "second compound 0.1 µM", "result": 5.47, "unit": "µM"}, {"measurement": "IC50", "setting": "second compound 0.316 µM", "result": 4.05, "unit": "µM"}, {"measurement": "IC50", "setting": "second compound 1 µM", "result": 3.67, "unit": "µM"}, {"measurement": "IC50", "setting": "second compound 3.16 µM", "result": 3.71, "unit": "µM"}, {"measurement": "IC50", "setting": "second compound 10 µM", "result": 2.27, "unit": "µM"}, {"measurement": "viability, T/C", "setting": "[1]", "result": 120, "unit": "%"}, {"measurement": "viability, T/C", "setting": "[2]", "result": 109, "unit": "%"}, {"measurement": "viability, T/C", "setting": "[3]", "result": 99, "unit": "%"}, {"measurement": "viability, T/C", "setting": "[4]", "result": 94.9, "unit": "%"}, {"measurement": "viability, T/C", "setting": "[5]", "result": 61.8, "unit": "%"}, {"measurement": "viability, T/C", "setting": "[6]", "result": 41.3, "unit": "%"}, {"measurement": "viability, T/C", "setting": "[7]", "result": 116, "unit": "%"}, {"measurement": "viability, T/C", "setting": "[8]", "result": 109, "unit": "%"}, {"measurement": "viability, T/C", "setting": "[9]", "result": 87.7, "unit": "%"}, {"measurement": "viability, T/C", "setting": "[10]", "result": 90.1, "unit": "%"}, {"measurement": "viability, T/C", "setting": "[11]", "result": 67.5, "unit": "%"}, {"measurement": "viability, T/C", "setting": "[12]", "result": 32.1, "unit": "%"}, {"measurement": "viability, T/C", "setting": "[13]", "result": 99.4, "unit": "%"}, {"measurement": "viability, T/C", "setting": "[14]", "result": 102, "unit": "%"}, {"measurement": "viability, T/C", "setting": "[15]", "result": 75.5, "unit": "%"}, {"measurement": "viability, T/C", "setting": "[16]", "result": 84.6, "unit": "%"}, {"measurement": "viability, T/C", "setting": "[17]", "result": 51.9, "unit": "%"}, {"measurement": "viability, T/C", "setting": "[18]", "result": 29.7, "unit": "%"}, {"measurement": "viability, T/C", "setting": "[19]", "result": 95.2, "unit": "%"}, {"measurement": "viability, T/C", "setting": "[20]", "result": 102, "unit": "%"}, {"measurement": "viability, T/C", "setting": "[21]", "result": 77, "unit": "%"}, {"measurement": "viability, T/C", "setting": "[22]", "result": 78.3, "unit": "%"}, {"measurement": "viability, T/C", "setting": "[23]", "result": 52.5, "unit": "%"}, {"measurement": "viability, T/C", "setting": "[24]", "result": 25.3, "unit": "%"}, {"measurement": "viability, T/C", "setting": "[25]", "result": 94.3, "unit": "%"}, {"measurement": "viability, T/C", "setting": "[26]", "result": 74.7, "unit": "%"}, {"measurement": "viability, T/C", "setting": "[27]", "result": 90, "unit": "%"}, {"measurement": "viability, T/C", "setting": "[28]", "result": 75.1, "unit": "%"}, {"measurement": "viability, T/C", "setting": "[29]", "result": 53.9, "unit": "%"}, {"measurement": "viability, T/C", "setting": "[30]", "result": 27.4, "unit": "%"}, {"measurement": "viability, T/C", "setting": "[31]", "result": 88.9, "unit": "%"}, {"measurement": "viability, T/C", "setting": "[32]", "result": 90.9, "unit": "%"}, {"measurement": "viability, T/C", "setting": "[33]", "result": 81.7, "unit": "%"}, {"measurement": "viability, T/C", "setting": "[34]", "result": 77.5, "unit": "%"}, {"measurement": "viability, T/C", "setting": "[35]", "result": 38.9, "unit": "%"}, {"measurement": "viability, T/C", "setting": "[36]", "result": 28.9, "unit": "%"}]}
{"smiles": "COc1cccc2c1C(=O)c1c(O)c3c(c(O)c1C2=O)CC(O)(C(=O)CO)CC3OC1CC(N)C(O)C(C)O1", "note": "(centres undefined) + CNC(=O)c1ccc(Nc2nc(OC3CCCC3)c3c(-c4ccc5nc(C)oc5c4)c[nH]c3n2)c(OC)c1", "values": [{"measurement": "IC50", "setting": "second compound 0.0316 µM", "result": 0.247, "unit": "µM"}, {"measurement": "IC50", "setting": "second compound 0.1 µM", "result": 0.254, "unit": "µM"}, {"measurement": "IC50", "setting": "second compound 0.316 µM", "result": 0.227, "unit": "µM"}, {"measurement": "IC50", "setting": "second compound 1 µM", "result": 0.162, "unit": "µM"}, {"measurement": "IC50", "setting": "second compound 3.16 µM", "result": 0.101, "unit": "µM"}, {"measurement": "IC50", "setting": "second compound 10 µM", "result": 0.105, "unit": "µM"}, {"measurement": "viability, T/C", "setting": "[1]", "result": 102, "unit": "%"}, {"measurement": "viability, T/C", "setting": "[2]", "result": 83.6, "unit": "%"}, {"measurement": "viability, T/C", "setting": "[3]", "result": 40.4, "unit": "%"}, {"measurement": "viability, T/C", "setting": "[4]", "result": 11.3, "unit": "%"}, {"measurement": "viability, T/C", "setting": "[5]", "result": 0.76, "unit": "%"}, {"measurement": "viability, T/C", "setting": "[6]", "result": 0.83, "unit": "%"}, {"measurement": "viability, T/C", "setting": "[7]", "result": 122, "unit": "%"}, {"measurement": "viability, T/C", "setting": "[8]", "result": 106, "unit": "%"}, {"measurement": "viability, T/C", "setting": "[9]", "result": 36.5, "unit": "%"}, {"measurement": "viability, T/C", "setting": "[10]", "result": 7.7, "unit": "%"}, {"measurement": "viability, T/C", "setting": "[11]", "result": 0.47, "unit": "%"}, {"measurement": "viability, T/C", "setting": "[12]", "result": 1.08, "unit": "%"}, {"measurement": "viability, T/C", "setting": "[13]", "result": 123, "unit": "%"}, {"measurement": "viability, T/C", "setting": "[14]", "result": 128, "unit": "%"}, {"measurement": "viability, T/C", "setting": "[15]", "result": 19.1, "unit": "%"}, {"measurement": "viability, T/C", "setting": "[16]", "result": 4.16, "unit": "%"}, {"measurement": "viability, T/C", "setting": "[17]", "result": 0.73, "unit": "%"}, {"measurement": "viability, T/C", "setting": "[18]", "result": 4.66, "unit": "%"}, {"measurement": "viability, T/C", "setting": "[19]", "result": 121, "unit": "%"}, {"measurement": "viability, T/C", "setting": "[20]", "result": 76.1, "unit": "%"}, {"measurement": "viability, T/C", "setting": "[21]", "result": 14.2, "unit": "%"}, {"measurement": "viability, T/C", "setting": "[22]", "result": 1.56, "unit": "%"}, {"measurement": "viability, T/C", "setting": "[23]", "result": 0.81, "unit": "%"}, {"measurement": "viability, T/C", "setting": "[24]", "result": 0.82, "unit": "%"}, {"measurement": "viability, T/C", "setting": "[25]", "result": 110, "unit": "%"}, {"measurement": "viability, T/C", "setting": "[26]", "result": 49.8, "unit": "%"}, {"measurement": "viability, T/C", "setting": "[27]", "result": 17.1, "unit": "%"}, {"measurement": "viability, T/C", "setting": "[28]", "result": 1.2, "unit": "%"}, {"measurement": "viability, T/C", "setting": "[29]", "result": 2.45, "unit": "%"}, {"measurement": "viability, T/C", "setting": "[30]", "result": 1.09, "unit": "%"}, {"measurement": "viability, T/C", "setting": "[31]", "result": 103, "unit": "%"}, {"measurement": "viability, T/C", "setting": "[32]", "result": 51.7, "unit": "%"}, {"measurement": "viability, T/C", "setting": "[33]", "result": 11.6, "unit": "%"}, {"measurement": "viability, T/C", "setting": "[34]", "result": 1.39, "unit": "%"}, {"measurement": "viability, T/C", "setting": "[35]", "result": 1.63, "unit": "%"}, {"measurement": "viability, T/C", "setting": "[36]", "result": 2.68, "unit": "%"}]}
